SMILES strings stand for the structures. “And” between values parts separate entries of the source, which are not always exact repeats. Equal values may be shown once. Inconclusive results and toxic doses are left out. Bridge positions count the residues as written; N and C are the ends. Peptide text beside a SMILES is read from it. I, II: the chains in the order shown.

This test deals with L1210 leukemia ip in BDF1 mice, survival T/C. The test can be described thus: NCI In Vivo Anticancer Drug Screen. Data for tumor model L1210 Leukemia (intraperitoneal) in B6D2F1 (BDF1) mice. The note with it: endpoint: mean survival time, higher = longer survival. Summed up: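 Transplantable tumor model; survival measured in treated vs vehicle control mice. Value = treated/control.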

The mark [1] stands for this setting: dose: 100.0 mg/kg/injection, schedule: Q04DX003 (ip), vehicle: saline with Tween-80.
[2] abbreviates: dose: 200.0 mg/kg/injection, schedule: Q04DX003 (ip), vehicle: saline with Tween-80.
The mark [3] stands for this setting: dose: 25.0 mg/kg/injection, schedule: Q01DX009 (ip), vehicle: Klucel (hydroxypropylcellulose) (HPC).
The mark [4] stands for this setting: dose: 50.0 mg/kg/injection, schedule: Q01DX009 (ip), vehicle: Klucel (hydroxypropylcellulose) (HPC).
Setting [5] is: dose: 100.0 mg/kg/injection, schedule: Q01DX009 (ip), vehicle: Klucel (hydroxypropylcellulose) (HPC).
The mark [6] stands for this setting: dose: 100.0 mg/kg/injection, schedule: Q04DX003 (ip), vehicle: saline.
Where [7] appears, read: dose: 200.0 mg/kg/injection, schedule: Q04DX003 (ip), vehicle: saline.
The mark [8] stands for this setting: dose: 400.0 mg/kg/injection, schedule: Q04DX003 (ip), vehicle: saline.
Setting [9] is: dose: 100.0 mg/kg/injection, schedule: Q04DX003 (ip), vehicle: Klucel (hydroxypropylcellulose) (HPC).

Take `CCOC1(C(=O)O)CC(c2ccc(Cl)cc2)Nc2c(OC)ccc(OC)c21` (stereo not drawn): the T/C by setting is: under setting [1], 98 % of control; under setting [2], 93 % of control.

For `NCC(=O)NC(CSSCC(NC(=O)CN)C(=O)O)C(=O)O` (stereo not drawn) (I: H-Gly-Cys-OH / II: H-Gly-Cys-OH; disulfide I:2-II:2; configuration not given here), the T/C is 99 % of control (dose: 75.0 mg/kg/injection, schedule: Q01DX001 (ip), vehicle: saline); 102 % of control (dose: 150.0 mg/kg/injection, schedule: Q01DX001 (ip), vehicle: saline); 100 % of control (dose: 300.0 mg/kg/injection, schedule: Q01DX001 (ip), vehicle: saline).

As for `O=S1(=O)CCCC1C(O)(c1ccccc1)c1ccccc1` (stereo not drawn), the T/C by setting is: under setting [1], 97 % of control; under setting [2], 92 % of control; (dose: 400.0 mg/kg/injection, schedule: Q04DX003 (ip), vehicle: saline with Tween-80) 94 % of control.

As to `COc1ccc(OC)c(NC(=O)Oc2ccc3ccccc3c2)c1`, the T/C is, setting by setting: (dose: 100.0 mg/kg/injection, schedule: Q04DX002 (ip), vehicle: saline) 93 % of control; (dose: 200.0 mg/kg/injection, schedule: Q04DX002 (ip), vehicle: saline) 101 % of control; (dose: 400.0 mg/kg/injection, schedule: Q04DX002 (ip), vehicle: saline) 96 % of control.

In the case of `CN=NNc1ccccc1`, the T/C runs as follows: (dose: 12.0 mg/kg/injection, schedule: Q01DX009 (ip), vehicle: saline) 114 % of control; (dose: 12.5 mg/kg/injection, schedule: Q01DX009 (ip), vehicle: Klucel (hydroxypropylcellulose) (HPC)) 100 % of control; (dose: 18.0 mg/kg/injection, schedule: Q01DX009 (ip), vehicle: saline) 118 % of control; under setting [3], 97 % of control; under setting [4], 102 % of control; (dose: 75.0 mg/kg/injection, schedule: Q04DX003 (ip), vehicle: saline with Tween-80) 113 % of control. Besides, the T/C runs as follows: under setting [5], 156 % of control; under setting [1], 121 % of control; (dose: 150.0 mg/kg/injection, schedule: Q04DX003 (ip), vehicle: saline with Tween-80) 164 % of control; (dose: 337.0 mg/kg/injection, schedule: Q04DX003 (ip), vehicle: saline with Tween-80) 153 % of control.

Consider `NC(=O)c1ncn(C2OC(CO)C(O)C2O)c1C(N)=O` (stereo not drawn), for which the T/C is, setting by setting: (dose: 100.0 mg/kg/injection, schedule: Q01DX001 (ip), vehicle: carboxymethylcellulose (CMC)) 104 % of control; (dose: 200.0 mg/kg/injection, schedule: Q01DX001 (ip), vehicle: carboxymethylcellulose (CMC)) 123 % of control.

As to `O=C1C(=O)c2ccccc2C(O)=C1Nc1ccc(Cl)cc1`, the T/C by setting is: (dose: 100.0 mg/kg/injection, schedule: Q01DX001 (ip), vehicle: saline) 94 % of control; (dose: 200.0 mg/kg/injection, schedule: Q01DX001 (ip), vehicle: saline) 93 % of control; (dose: 400.0 mg/kg/injection, schedule: Q01DX001 (ip), vehicle: saline) 93 % of control.

As for `Cc1cc(C)c2c(c1)CC2=O`, the T/C runs as follows: (dose: 50.0 mg/kg/injection, schedule: Q04DX002 (ip), vehicle: Klucel (hydroxypropylcellulose) (HPC)) 96 % of control; (dose: 100.0 mg/kg/injection, schedule: Q04DX002 (ip), vehicle: Klucel (hydroxypropylcellulose) (HPC)) 112 % of control; (dose: 200.0 mg/kg/injection, schedule: Q04DX002 (ip), vehicle: Klucel (hydroxypropylcellulose) (HPC)) 86 % of control.

For the molecule `O=C(CCCCC(=O)N/N=C\c1ccccn1)N/N=C\c1ccccn1`, the T/C by setting is: (dose: 100.0 mg/kg/injection, schedule: Q01DX009 (ip), vehicle: saline) 98 % of control; under setting [6], 96 % of control; (dose: 200.0 mg/kg/injection, schedule: Q01DX009 (ip), vehicle: saline) 89 % of control; under setting [7], 107 % of control; (dose: 400.0 mg/kg/injection, schedule: Q01DX009 (ip), vehicle: saline) 100 % of control; under setting [8], 89 % of control.

For the molecule `CCCCC(CC)C(=O)C(CCN(C)C)(c1ccccc1)c1ccccn1` (stereo not drawn), the T/C (dose: 44.0 mg/kg/injection, schedule: Q01DX Z (ip), vehicle: methylcellulose (MC)) was 101 % of control; the T/C (dose: 66.0 mg/kg/injection, schedule: Q01DX Z (ip), vehicle: methylcellulose (MC)) is 97 % of control; the T/C (dose: 100.0 mg/kg/injection, schedule: Q01DX Z (ip), vehicle: methylcellulose (MC)) was 96 % of control.

Take `CCc1ccc2c(-c3ccccc3)ccc3c2c1C(=O)c1ccccc1-3`: the T/C reads like this: (dose: 100.0 mg/kg/injection, schedule: Q04DX002 (ip), vehicle: saline with Tween-80) 94 % of control; (dose: 200.0 mg/kg/injection, schedule: Q04DX002 (ip), vehicle: saline with Tween-80) 88 % of control; (dose: 400.0 mg/kg/injection, schedule: Q04DX002 (ip), vehicle: saline with Tween-80) 91 % of control.

Consider `O=C(c1ccc(F)cc1)C(F)(F)F`, for which the T/C (dose: 100.0 mg/kg/injection, schedule: Q01DX001 (ip), vehicle: Klucel (hydroxypropylcellulose) (HPC)) was 95 % of control and 101 % of control; the T/C (dose: 100.0 mg/kg/injection, schedule: Q04DX003 (ip), vehicle: other) is 104 % of control; the T/C (dose: 200.0 mg/kg/injection, schedule: Q01DX001 (ip), vehicle: Klucel (hydroxypropylcellulose) (HPC)) was 103 % of control; the T/C (dose: 200.0 mg/kg/injection, schedule: Q04DX003 (ip), vehicle: other) is 108 % of control; the T/C (dose: 400.0 mg/kg/injection, schedule: Q01DX001 (ip), vehicle: Klucel (hydroxypropylcellulose) (HPC)) is 95 % of control and 101 % of control; the T/C (dose: 400.0 mg/kg/injection, schedule: Q04DX003 (ip), vehicle: other) was 94 % of control.

With `CCOC(/C=C(\C)C(C)=O)OCC`, the T/C reads like this: under setting [6], 97 % of control; under setting [7], 98 % of control; under setting [8], 95 % of control.

As to `Nc1nc(N)nc(SCCO)n1`, the T/C was 99 % of control under setting [5]; 110 % of control (dose: 200.0 mg/kg/injection, schedule: Q01DX009 (ip), vehicle: Klucel (hydroxypropylcellulose) (HPC)); 93 % of control (dose: 400.0 mg/kg/injection, schedule: Q01DX009 (ip), vehicle: Klucel (hydroxypropylcellulose) (HPC)).

For the molecule `CCNC(Cc1ccccc1)c1ccc(OC)cc1` (stereo not drawn), the T/C under setting [3] was 97 % of control; the T/C (dose: 25.0 mg/kg/injection, schedule: Q04DX003 (ip), vehicle: Klucel (hydroxypropylcellulose) (HPC)) is 110 % of control; the T/C under setting [4] is 94 % of control; the T/C (dose: 50.0 mg/kg/injection, schedule: Q04DX003 (ip), vehicle: Klucel (hydroxypropylcellulose) (HPC)) is 102 % of control; the T/C under setting [9] was 98 % of control and 102 % of control.

Take `O=C1OCC/C1=C/CCCCCC/C=C1\CCOC1=O`: the T/C is 92 % of control (dose: 50.0 mg/kg/injection, schedule: Q01DX009 (ip), vehicle: DMSO); 90 % of control (dose: 100.0 mg/kg/injection, schedule: Q01DX009 (ip), vehicle: DMSO); 102 % of control (dose: 100.0 mg/kg/injection, schedule: Q04DX003 (ip), vehicle: DMSO); 91 % of control (dose: 200.0 mg/kg/injection, schedule: Q01DX009 (ip), vehicle: DMSO); 101 % of control (dose: 200.0 mg/kg/injection, schedule: Q04DX003 (ip), vehicle: DMSO); 94 % of control (dose: 400.0 mg/kg/injection, schedule: Q04DX003 (ip), vehicle: DMSO).

For the molecule `CCC[n+]1c(C)oc2ccc(-c3ccccc3)cc21`, the T/C is 97 % of control (dose: 50.0 mg/kg/injection, schedule: Q01DX009 (ip), vehicle: saline with Tween-80); 94 % of control (dose: 100.0 mg/kg/injection, schedule: Q01DX001 (ip), vehicle: saline with Tween-80); 101 % of control (dose: 100.0 mg/kg/injection, schedule: Q01DX009 (ip), vehicle: saline with Tween-80); 99 % of control (dose: 200.0 mg/kg/injection, schedule: Q01DX001 (ip), vehicle: saline with Tween-80); 90 % of control (dose: 400.0 mg/kg/injection, schedule: Q01DX001 (ip), vehicle: saline with Tween-80).

Regarding `COc1cc2c3c(c1)/C(=N\NC(N)=O)CCN3CCC2`, the T/C was 98 % of control under setting [9]; 103 % of control (dose: 200.0 mg/kg/injection, schedule: Q04DX003 (ip), vehicle: Klucel (hydroxypropylcellulose) (HPC)); 108 % of control (dose: 400.0 mg/kg/injection, schedule: Q04DX003 (ip), vehicle: Klucel (hydroxypropylcellulose) (HPC)).

On to `CN(C)C(=O)c1ccc[n+](Cc2ccc(Cl)c(Cl)c2)c1`, for which, under setting [6], the T/C is 88 % of control.
